Data taken from patent US20100183604A1, “PREVENTIVE/REMEDY FOR CANCER” (TAKEDA PHARMACEUTICAL COMPANY LIMITED, priority 2007, published 2010).
Entries after “also recorded” stand apart in the source; their conditions may differ.

Tests used:
[1] = test system: BT474 cells highly sensitive to trastuzumab; experiment: Viable cell count after HER2 inhibitor addition (no siRNA), high sensitive cell line; format: cell-based, human; conditions: 5 days; for growth suppression: 1 μmol/L, no siRNA; for concentration dependence of growth (proliferation) suppression: range of final concentrations, similar level in both lines
Procedure: (§1) After culture for 5 days at 37° C., 5% CO2, the number of viable cells was counted.

[2] = test system: trastuzumab low sensitive BT-474 cells; experiment: Viable cell count after HER2 inhibitor addition (no siRNA), low sensitive cell line; format: cell-based, human; conditions: 5 days; for growth suppression: 1 μmol/L, no siRNA; for concentration dependence of growth (proliferation) suppression: range of final concentrations, similar level in both lines
Procedure: as §1

| SMILES | growth suppression [1] | concentration dependence of growth (proliferation) suppression [1] | growth suppression [2] | concentration dependence of growth (proliferation) suppression [2] |
| --- | --- | --- | --- | --- |
| CC(C)(O)CC(=O)NCCn1ccc2ncnc(Nc3ccc(Oc4cccc(C(F)(F)F)c4)c(Cl)c3)c21 [compound A, N-{2-[4-({3-chloro-4-[3-(trifluoromethyl)phenoxy]phenyl}amino)-5H-pyrrolo[3,2-d]pyrimidin-5-yl]ethyl}-3-hydroxy-3-methylbutanamide] | complete suppression of growth | suppressed in a concentration-dependent manner; also recorded: concentration-dependent growth suppression | complete suppression of growth | suppressed in a concentration-dependent manner; also recorded: concentration-dependent growth suppression |
| CS(=O)(=O)CCNCc1ccc(-c2ccc3ncnc(Nc4ccc(OCc5cccc(F)c5)c(Cl)c4)c3c2)o1 [lapatinib] | complete suppression of growth | suppressed in a concentration-dependent manner; also recorded: concentration-dependent growth suppression | complete suppression of growth | suppressed in a concentration-dependent manner; also recorded: concentration-dependent growth suppression |
